Laboratory results published in the NIST ThermoML archive (doi:10.1021/je200793z).
Numbers after ± are expanded uncertainties.

Experiments:
[1] = xn = mol fraction of the nth substance listed

CC(C)CCO [3-methylbutan-1-ol]
Conditions | surface tension liquid-gas [mN/m]
293.15 K | 24.5 ± 0.18
298.15 K | 24.15 ± 0.18
303.15 K | 23.8 ± 0.18
308.15 K | 23.36 ± 0.17
313.15 K | 22.96 ± 0.17
318.15 K | 22.57 ± 0.17
323.15 K | 22.17 ± 0.17

CC(C)CCO [3-methylbutan-1-ol] + CCO
surface tension liquid-gas [mN/m], [1]
Conditions | 293.15 K | 298.15 K | 303.15 K | 308.15 K | 313.15 K | 318.15 K | 323.15 K
x1 = 0.0268 | 22.56 ± 0.14 | 22.09 ± 0.14 | 21.7 ± 0.14 | 21.35 ± 0.14 | 20.95 ± 0.14 | 20.56 ± 0.14 | 20.17 ± 0.13
x1 = 0.0549 | 22.78 ± 0.14 | 22.32 ± 0.14 | 21.94 ± 0.14 | 21.59 ± 0.14 | 21.19 ± 0.14 | 20.81 ± 0.14 | 20.44 ± 0.14
x1 = 0.0845 | 22.98 ± 0.14 | 22.54 ± 0.14 | 22.17 ± 0.14 | 21.81 ± 0.14 | 21.41 ± 0.14 | 21.04 ± 0.14 | 20.67 ± 0.14
x1 = 0.1156 | 23.17 ± 0.14 | 22.73 ± 0.14 | 22.36 ± 0.14 | 22.01 ± 0.14 | 21.62 ± 0.14 | 21.24 ± 0.14 | 20.87 ± 0.14
x1 = 0.1484 | 23.33 ± 0.15 | 22.9 ± 0.14 | 22.53 ± 0.14 | 22.17 ± 0.14 | 21.78 ± 0.14 | 21.41 ± 0.14 | 21.04 ± 0.14
x1 = 0.183 | 23.49 ± 0.15 | 23.05 ± 0.15 | 22.68 ± 0.14 | 22.32 ± 0.14 | 21.92 ± 0.14 | 21.55 ± 0.14 | 21.17 ± 0.14
x1 = 0.2584 | 23.75 ± 0.15 | 23.32 ± 0.15 | 22.95 ± 0.15 | 22.58 ± 0.15 | 22.18 ± 0.14 | 21.8 ± 0.14 | 21.42 ± 0.14
x1 = 0.3433 | 23.96 ± 0.15 | 23.54 ± 0.15 | 23.17 ± 0.15 | 22.79 ± 0.15 | 22.39 ± 0.15 | 22.01 ± 0.15 | 21.63 ± 0.15
x1 = 0.4395 | 24.13 ± 0.16 | 23.72 ± 0.16 | 23.36 ± 0.15 | 22.97 ± 0.15 | 22.57 ± 0.15 | 22.19 ± 0.15 | 21.81 ± 0.15
x1 = 0.5495 | 24.25 ± 0.16 | 23.85 ± 0.16 | 23.49 ± 0.16 | 23.1 ± 0.16 | 22.7 ± 0.16 | 22.33 ± 0.15 | 21.95 ± 0.15
x1 = 0.6765 | 24.34 ± 0.17 | 23.96 ± 0.16 | 23.61 ± 0.16 | 23.21 ± 0.16 | 22.82 ± 0.16 | 22.44 ± 0.16 | 22.06 ± 0.16
x1 = 0.8247 | 24.41 ± 0.17 | 24.05 ± 0.17 | 23.71 ± 0.17 | 23.29 ± 0.17 | 22.89 ± 0.17 | 22.51 ± 0.16 | 22.12 ± 0.16
x1 = 1 | 24.5 ± 0.18 | 24.15 ± 0.18 | 23.8 ± 0.18 | 23.36 ± 0.17 | 22.96 ± 0.17 | 22.57 ± 0.17 | 22.17 ± 0.17

CCO [ethanol]
Conditions | surface tension liquid-gas [mN/m]
293.15 K | 22.31 ± 0.14
298.15 K | 21.82 ± 0.14
303.15 K | 21.41 ± 0.14
308.15 K | 21.04 ± 0.14
313.15 K | 20.62 ± 0.13
318.15 K | 20.22 ± 0.13
323.15 K | 19.82 ± 0.13

CCO [ethanol] + CC(C)CCO
[1], x2 = 0
Conditions | surface tension liquid-gas [mN/m]
293.15 K | 22.31 ± 0.14
298.15 K | 21.82 ± 0.14
303.15 K | 21.41 ± 0.14
308.15 K | 21.04 ± 0.14
313.15 K | 20.62 ± 0.13
318.15 K | 20.22 ± 0.13
323.15 K | 19.82 ± 0.13

CCO [ethanol] + CCC(C)(C)O
[1], x2 = 0
Conditions | surface tension liquid-gas [mN/m]
293.15 K | 22.31 ± 0.12
298.15 K | 21.82 ± 0.12
303.15 K | 21.41 ± 0.11
308.15 K | 21.04 ± 0.11
313.15 K | 20.62 ± 0.11
318.15 K | 20.22 ± 0.11
323.15 K | 19.82 ± 0.11

CCO [ethanol] + CCC(C)CO
[1], x2 = 0
Conditions | surface tension liquid-gas [mN/m]
293.15 K | 22.31 ± 0.14
298.15 K | 21.82 ± 0.14
303.15 K | 21.41 ± 0.14
308.15 K | 21.04 ± 0.14
313.15 K | 20.62 ± 0.13
318.15 K | 20.22 ± 0.13
323.15 K | 19.82 ± 0.13
